Assays:
ferric iron accumulation = experiment: Perls' DAB stain for ferric iron in cerebellar folia and striatum; assay type: in vivo, mice; details: cerebellar folia and striatum of IRP2−/− animals on Tempo1 diet
Protocol: Diet: The mice were weaned 3-4 weeks after their birth. Immediately after weaning, mice were maintained on either a Tempo1-supplemented or control diet. In the Tempo1-supplemented diet, powdered Tempo1 was uniformly mixed with bacon-flavored mouse chow by a “cold press” technique (Bio-Serv, Frenchtown, N.J., USA) at a concentration of 10 mg/g of food. Bacon-flavored chow without Tempo1 was used as the control diet.
Perl's DAB iron staining: After dewaxing and rehydrating, paraffin-embeded tissue sections were stained in prewarmed staining solution (5% potassium ferrocyanide 15.0 ml, 5% hydrochloric acid 15.0 ml, 15 sec in micro oven) for 5 min. The sections were rinsed with distilled water and Tris-buffered saline pH7.4, then were stained with DAB staining solution (20 mg DAB, 50 μl 30% H2O2, 20 ml Tris-buffered saline pH 7.4) for 30 min at room temperature. After rinsing with distilled water, the sections were mounted with Crystal Mount mounting solution (Sigma) and were observed and taken pictures with Nikon Eclipse E600 fluorescence microscope.
Cerebellar folia and striatum of wild type and IRP2−/− mice that were maintained on a control diet or on a Tempo1-supplemented diet were analyzed for ferric iron accumulation using Perls' DAB stain. […]

IRP1 = target: T1, IRP1 (Mus musculus, UniProt P28271); experiment: Gel-shift of IRP1 in wild type and IRP2−/− mouse embryonic fibroblasts after Tempo1 or DFO and washout; assay type: cell-based; design: Embryonic fibroblasts of 13-day old embryos were isolated from wild type, IRP1−/− mice and IRP2−/− mice; endogenous in cells; host or cells: mouse embryonic fibroblasts (wild type and IRP2−/−)
T1 sequence (P28271 1-889): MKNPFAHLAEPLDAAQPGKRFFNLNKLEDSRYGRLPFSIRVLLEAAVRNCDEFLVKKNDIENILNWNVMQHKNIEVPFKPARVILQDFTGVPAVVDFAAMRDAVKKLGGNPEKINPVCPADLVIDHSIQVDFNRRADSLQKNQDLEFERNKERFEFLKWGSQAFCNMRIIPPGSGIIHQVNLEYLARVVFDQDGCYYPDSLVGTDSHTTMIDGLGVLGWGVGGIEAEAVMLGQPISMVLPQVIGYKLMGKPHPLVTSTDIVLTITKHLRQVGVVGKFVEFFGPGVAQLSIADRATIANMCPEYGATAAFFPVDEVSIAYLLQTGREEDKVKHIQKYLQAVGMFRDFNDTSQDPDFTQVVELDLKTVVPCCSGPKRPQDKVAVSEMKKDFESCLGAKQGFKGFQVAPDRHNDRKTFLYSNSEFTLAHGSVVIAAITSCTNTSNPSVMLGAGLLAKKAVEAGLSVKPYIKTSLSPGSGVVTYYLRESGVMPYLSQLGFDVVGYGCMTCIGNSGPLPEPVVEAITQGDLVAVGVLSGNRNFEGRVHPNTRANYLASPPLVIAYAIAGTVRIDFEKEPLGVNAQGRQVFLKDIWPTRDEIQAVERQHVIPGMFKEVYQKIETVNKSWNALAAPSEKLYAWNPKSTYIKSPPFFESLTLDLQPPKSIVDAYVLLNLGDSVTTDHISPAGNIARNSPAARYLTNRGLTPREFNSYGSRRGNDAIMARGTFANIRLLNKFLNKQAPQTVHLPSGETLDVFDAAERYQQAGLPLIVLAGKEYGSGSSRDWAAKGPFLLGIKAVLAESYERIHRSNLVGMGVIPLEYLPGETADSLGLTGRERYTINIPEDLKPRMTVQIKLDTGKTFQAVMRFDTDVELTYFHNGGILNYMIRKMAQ
Protocol: Cells: Embryonic fibroblasts of 13-day old embryos were isolated from wild type, IRP1−/− mice and IRP2−/− mice as described in LaVaute et al. supra. Myc-tagged HEK 293 Tet-on cell line, in which IRP2 expression was inducible, was prepared and cultured as described Bourdon et al., Blood Cells Mol Dis, 31, 247-255 (2003). Erythroblasts were harvested from bone marrow and purified as described in Cooperman et al., Blood, 106, 1084-1091 (2005).
RNA mobility shift assays: Gel retardation assays were performed as described in Meyron-Holtz et al., EMBO J, 23, 386-395 (2004). Tissue lysates were prepared in an anaerobic chamber as described above in oxygen-depleted lysis buffer containing 10 mM HEPES (pH 7.2), 3 mM MgC12, 40 mM KCl, 5% glycerol, 0.2% Nonidet P-40, 5 mM DTT, 1 mM AEBSF, 10 μg/ml. Leupeptin and complete TM EDTA free protease inhibitor cocktail (Roche Applied Science, Indiana). Lysate (x μl) containing 10 μg of total protein was added to (12.5−x) μl of bandshift buffer containing 25 mM Tris-HCl (pH 7.5) and 40 mM KCl. The samples were incubated for 5 min at room temperature (RT) with 12.5 μl of a reaction cocktail containing 20% glycerol, 0.2 U/μl Super RNAsine (Ambion, Tex.), 0.6 μg/μl yeast t-RNA, 5 mM DTT and 20 nM 32P-labelled IRE from human ferritin H-chain gene in 25 mM Tris-HCl (pH 7.5) and 40 mM KCl. A measure of 20 μl of this reaction mixture was loaded into a 10% acrylamide/TBE gel, which was run at 200 V for 2.15 h, and then the gel was fixed, dried and exposed for autoradiography.
To determine whether the effect of Tempo1 on IRP1 activity was kinetically consistent with oxidative disassembly of the iron sulfur cluster, the effect of Tempo1 on aconitase activity was compared to that of the iron chelator, deferiprone (DFO), which activates IRE-binding activity of IRP1 by limiting de novo synthesis and repair of the iron sulfur cluster in IRP1. […] Recovery of aconitase activity was assessed in wild type and IRP2−/− cells.

## CC1(C)CC(O)CC(C)(C)N1[O] [Tempo1]
Ferric iron accumulation
  ferric iron staining: decreased
IRP1; mouse embryonic fibroblasts, 16 hours treatment, then fresh unsupplemented media
  time to reversal of the activation of IRE-binding activity after removal: ≤ 2 h
IRP1; wild type and IRP2−/− mouse embryonic fibroblasts treated 16 hours
  IRE-binding activity of IRP1: activated

Reference: patent US20100179188A1, “NITROXIDE RADICAL AS TREATMENT FOR NEURODEGENERATION” (Office of Technology Transfer, NIH, priority 2007, published 2010)
